Test results taken from EP4159721A1, “CONDENSED 3,3-DIFLUORO-PIPERIDINE DERIVATIVES AS INHIBITORS OF CORONAVIRUSES 3-CHYMOTRYPSIN-LIKE PROTEASE” (Qubit Pharmaceuticals, priority 2021, dated 2023).
Where two headings read alike, the source gives them in different places.

What was measured:
[1] = biological target: T1, SARS-CoV-2 3CLpro (Severe acute respiratory syndrome coronavirus 2, UniProt P0DTD1); assay: Binding assessment by Nuclear Magnetic Resonance (WaterLOGSY and STD); parameters: key: +++: strong binder; ++: binder; +/-: not to very low binder; conditions: NMR (WaterLOGSY, STD); 10 µM of 3CLpro, ligand 100 µM to 2 mM, pH=7.3
[2] = biological target: T1, SARS-CoV-2 3CLpro; assay: Binding studies by Mass Spectrometry (ESI-MS, denaturing conditions); conditions: 10 µM 3CLpro, 1:1 or 10:1 compound:protein, 20 min at room temperature
[3] = biological target: T1, SARS-CoV-2 3CLpro; assay: FRET-based assay of 3CLpro inhibitory activity; type: biochemical

Row | SMILES | Binding Activity [1] | also measured
1 | CSc1ccc2c(c1)NCC(F)(F)C2O (single isomer, unassigned) [Compound 1 or 2, 3,3-difluoro-7-(methylsulfanyl)-1,2,3,4-tetrahydroquinolin-4-ol] | ++ | –
2 | CSc1cc2c(cn1)C(O)C(F)(F)CN2 (single isomer, unassigned) [Compound 3 or 4, 3,3-difluoro-7-(methylsulfanyl)-1,2,3,4-tetrahydro-1,6-naphthyridin-4-ol] | +++ | –
3 | CSc1ccc2c(c1)NC(=O)C(F)(F)C2O (single isomer, unassigned) [Compound 5 or 6, 3,3-difluoro-4-hydroxy-7-(methylsulfanyl)-1,2,3,4-tetrahydroquinolin-2-one] | +++ | –
4 | CSc1cc2c(cn1)C(O)C(F)(F)C(=O)N2 (single isomer, unassigned) [Compound 7 or 8, 3,3-difluoro-4-hydroxy-7-(methylsulfanyl)-1,2,3,4-tetrahydro-1,6-naphthyridin-2-one] | ++ | –
5 | CSc1ccc2c(c1)NC(=O)C(F)(F)C2C (single isomer, unassigned) [Compound 9 or 10, 3,3-difluoro-4-methyl-7-(methylsulfanyl)-1,2,3,4-tetrahydroquinolin-2-one] | +++ | –
6 | CSc1ccc2c(c1)NCC(F)(F)C2C (single isomer, unassigned) [Compound 11 or 12, 3,3-difluoro-4-methyl-7-(methylsulfanyl)-1,2,3,4-tetrahydroquinoline] | ++ | –
7 | O=C1Nc2cc(SC3CC3)ccc2C(O)C1(F)F (single isomer, unassigned) [Compound 15 or 16] | ++ | –
8 | CSc1cc(F)c2c(c1)NC(=O)C(F)(F)C2O (single isomer, unassigned) [Compound 17 or 18] | ++ | –
9 | Cc1nn(C)c2c1C(O)C(F)(F)C(=O)N2 (single isomer, unassigned) [Compound 19 or 20, 5,5-difluoro-4-hydroxy-1,3-dimethyl-1H,4H,5H,6H,7H-pyrazolo[3,4-b]pyridin-6-one] | ++ | –
10 | CSc1cc2c(cn1)C(=O)C(F)(F)C(=O)N2 [Compound 13, 3,3-difluoro-7-(methylsulfanyl)-1,2,3,4-tetrahydro-1,6-naphthyridine-2,4-dione] | – | Covalent binding [2]: Covalent binding is confirmed; IC50 [3]: 2270 nM
11 | CSc1ccc2c(c1)NC(=O)C(F)(F)C2=O [Compound 14, 3,3-difluoro-7-(methylsulfanyl)-1,2,3,4-tetrahydroquinoline-2,4-dione] | – | Covalent binding [2]: Covalent binding is confirmed; IC50 ([3]; 0.02 µM 3CLpro, 5 µM peptide substrate, 20 minutes incubation at room temperature, triplicate, average and standard deviation, read-out: IC50): 830 nM
12 | CSc1ccc2c(c1)NC(=O)CC2C (centres unmarked) [reference compound] | +/- | –
13 | CSc1ccc2c(c1)NC(=O)CC2=O [reference compound] | +/- | –
14 | O=C1Nc2ccccc2C(O)C1(F)F (centres unmarked) [reference compound] | +/- | –
15 | CSc1ccc2c(c1)NC(=O)C(F)(F)C2(C)O (centres unmarked) [reference compound] | +/- | –
